Format in all cases: functional
Assay [1] deals with Streptococcus pneumoniae. Nature of the assay: In vitro antibacterial activity against the gram-positive bacteria, penicillin sensitive Streptococcus pneumoniae (3273).
Assay [2] deals with Streptococcus pneumoniae. Nature of the assay: In vitro antibacterial activity against the gram-positive bacteria, penicillin resistant Streptococcus pneumoniae (4636).
Assay [3] deals with Staphylococcus aureus. Nature of the assay: In vitro antibacterial activity against the gram-positive bacteria, penicillin sensitive Staphylococcus aureus (663E).
The subject of assay [4] is Staphylococcus aureus. Briefly: In vitro antibacterial activity against the gram-positive bacteria, penicillin resistant Staphylococcus aureus (2619).
The subject of assay [5] is Streptococcus pneumoniae. Nature of the assay: In vitro antibacterial activity against the gram-positive bacteria, penicillin resistant Streptococcus pneumoniae (4630).
Assay [6] relates to Streptococcus pneumoniae. Briefly: In vitro antibacterial activity against the gram-positive bacteria, penicillin sensitive Streptococcus pneumoniae (3512).
The test system of assay [7] is Staphylococcus aureus. Briefly: In vitro antibacterial activity against the gram-positive bacteria, penicillin sensitive Staphylococcus aureus (3072).
In assay [8] the test system is Staphylococcus aureus. Nature of the assay: In vitro antibacterial activity against the gram-positive bacteria, penicillin resistant Staphylococcus aureus (2672).
The subject of a further assay is Streptococcus pyogenes. Briefly: In vitro antibacterial activity against the gram-positive bacteria, erythromycin resistant Streptococcus pyogenes.
In assay [9] the test system is Streptococcus pneumoniae. Nature of the assay: In vitro antibacterial activity against the gram-positive bacteria, penicillin resistant Streptococcus pneumoniae (4629).
Assay [10] relates to Streptococcus pneumoniae. Nature of the assay: In vitro antibacterial activity against the gram-positive bacteria, penicillin sensitive Streptococcus pneumoniae (3272).
In assay [11] the test system is Staphylococcus aureus. Briefly: In vitro antibacterial activity against the gram-positive bacteria, penicillin resistant Staphylococcus aureus (853).
The subject of assay [12] is Staphylococcus aureus. Nature of the assay: In vitro antibacterial activity against the gram-positive bacteria, penicillin sensitive Staphylococcus aureus (3849).
For assay [13], the system named is Streptococcus pneumoniae. Nature of the assay: In vitro antibacterial activity against the gram-positive bacteria, penicillin resistant Streptococcus pneumoniae (4635).

Each structure is given as a SMILES string. ≈ marks a conversion by molar mass, not a printed value.

Drawing on ChEMBL document CHEMBL1132087, “New N-substituted 7-aminocephalosporanic acid derivatives as potential agents against Streptococcus pneumoniae. Synthesis and in vitro activity” (1999), this text covers MIC for 6 compounds.

On to `CC1(C)S[C@@H]2[C@H](NC(=O)[C@H](N)c3ccc(O)cc3)C(=O)N2[C@H]1C(=O)O.O=C(O)[C@H]1/C(=C/CO)O[C@@H]2CC(=O)N21`, for which the MIC was less than 0.015 µg/mL in the assay with Streptococcus pneumoniae [1]; 4 µg/mL against Streptococcus pneumoniae [2]; 0.25 µg/mL against Staphylococcus aureus [3]; 2 µg/mL in the assay with Staphylococcus aureus [4]; 2 µg/mL against Streptococcus pneumoniae [5]; less than 0.015 µg/mL against Streptococcus pneumoniae [6]. The MIC in the assay on Staphylococcus aureus [7] is 0.5 µg/mL; against Staphylococcus aureus [8], 1 µg/mL; against Streptococcus pyogenes, 0.06 µg/mL; against Streptococcus pneumoniae [9] it was 4 µg/mL; with Streptococcus pneumoniae [10], less than 0.015 µg/mL; against Staphylococcus aureus [11], 2 µg/mL. In addition, the MIC was 0.25 µg/mL in the assay on Staphylococcus aureus [12] and 4 µg/mL against Streptococcus pneumoniae [13].
As to `CC(=O)OCC1=C(C(=O)O)N2C(=O)[C@@H](NC(=O)CN(OCc3ccccc3)C(=O)c3ccccc3)C2SC1` (stereo partly drawn), the MIC with Streptococcus pneumoniae [1] came to 0.06 µg/mL (≈ 0.111 µM); against Streptococcus pneumoniae [2], 16 µg/mL (≈ 29.7 µM); in the assay with Staphylococcus aureus [3], 0.5 µg/mL (≈ 0.927 µM); against Staphylococcus aureus [4], 2 µg/mL (≈ 3.71 µM); in the assay on Streptococcus pneumoniae [5], 8 µg/mL (≈ 14.8 µM); in the assay on Streptococcus pneumoniae [6], 0.03 µg/mL (≈ 0.0556 µM). In addition, the MIC in the assay on Staphylococcus aureus [7] was found to be 1 µg/mL (≈ 1.85 µM); with Staphylococcus aureus [8] it was 8 µg/mL (≈ 14.8 µM); against Streptococcus pyogenes it was 0.25 µg/mL (≈ 0.463 µM); with Streptococcus pneumoniae [9] it was 8 µg/mL (≈ 14.8 µM); against Streptococcus pneumoniae [10] it was 0.06 µg/mL (≈ 0.111 µM); with Staphylococcus aureus [11], 1 µg/mL (≈ 1.85 µM). Moreover, the values for the MIC against Staphylococcus aureus [12] and with Streptococcus pneumoniae [13] were 0.5 µg/mL (≈ 0.927 µM) and 8 µg/mL (≈ 14.8 µM), respectively.
Consider `CC(=O)OCC1=C(C(=O)O)N2C(=O)[C@@H](NC(=O)CN(OCc3ccc(Cl)cc3)C(=O)c3ccccc3)C2SC1` (stereo partly drawn), for which the minimum inhibitory concentration (MIC) came out at 0.12 µg/mL (≈ 0.209 µM) against Streptococcus pneumoniae [1]; 16 µg/mL (≈ 27.9 µM) in the assay with Streptococcus pneumoniae [2]; 0.5 µg/mL (≈ 0.871 µM) against Staphylococcus aureus [3]; 2 µg/mL (≈ 3.48 µM) against Staphylococcus aureus [4]; 8 µg/mL (≈ 13.9 µM) with Streptococcus pneumoniae [5]; 0.12 µg/mL (≈ 0.209 µM) in the assay with Streptococcus pneumoniae [6]. For the same compound, the MIC was 0.5 µg/mL (≈ 0.871 µM) against Staphylococcus aureus [7]; 8 µg/mL (≈ 13.9 µM) in the assay with Staphylococcus aureus [8]; 0.12 µg/mL (≈ 0.209 µM) against Streptococcus pyogenes; 8 µg/mL (≈ 13.9 µM) in the assay with Streptococcus pneumoniae [9]; 0.12 µg/mL (≈ 0.209 µM) against Streptococcus pneumoniae [10]; 2 µg/mL (≈ 3.48 µM) with Staphylococcus aureus [11]. The minimal inhibitory concentration (MIC) with Staphylococcus aureus [12] is 1 µg/mL (≈ 1.74 µM); with Streptococcus pneumoniae [13], 8 µg/mL (≈ 13.9 µM).
`CC(=O)OCC1=C(C(=O)O)N2C(=O)[C@@H](NC(=O)CN(OCc3ccccc3Cl)C(=O)NCc3ccccc3)C2SC1` (stereo partly drawn): the MIC with Streptococcus pneumoniae [1] came to 0.5 µg/mL (≈ 0.829 µM); with Streptococcus pneumoniae [2], 64 µg/mL (≈ 106 µM); with Staphylococcus aureus [3], 0.5 µg/mL (≈ 0.829 µM); in the assay on Staphylococcus aureus [4], 1 µg/mL (≈ 1.66 µM); in the assay with Streptococcus pneumoniae [5], 16 µg/mL (≈ 26.5 µM); in the assay on Streptococcus pneumoniae [6], 0.25 µg/mL (≈ 0.415 µM). For the same compound, the MIC is 1 µg/mL (≈ 1.66 µM) with Staphylococcus aureus [7]; 4 µg/mL (≈ 6.63 µM) in the assay on Staphylococcus aureus [8]; 0.25 µg/mL (≈ 0.415 µM) in the assay with Streptococcus pyogenes; 16 µg/mL (≈ 26.5 µM) with Streptococcus pneumoniae [9]; 0.5 µg/mL (≈ 0.829 µM) in the assay with Streptococcus pneumoniae [10]; 1 µg/mL (≈ 1.66 µM) against Staphylococcus aureus [11]. Also, the MIC was found to be 0.5 µg/mL (≈ 0.829 µM) against Staphylococcus aureus [12] and 4 µg/mL (≈ 6.63 µM) against Streptococcus pneumoniae [13].
Take `CC(=O)OCC1=C(C(=O)O)N2C(=O)[C@@H](NC(=O)CN(OCc3ccc(Cl)cc3)C(=O)NCc3ccccc3)C2SC1` (stereo partly drawn): the MIC in the assay with Streptococcus pneumoniae [1] came out at 0.5 µg/mL (≈ 0.829 µM); with Streptococcus pneumoniae [2] it was 32 µg/mL (≈ 53.1 µM); with Staphylococcus aureus [3], 0.5 µg/mL (≈ 0.829 µM); in the assay on Staphylococcus aureus [4], 1 µg/mL (≈ 1.66 µM); in the assay with Streptococcus pneumoniae [5] it was 8 µg/mL (≈ 13.3 µM); against Streptococcus pneumoniae [6] it was 0.25 µg/mL (≈ 0.415 µM). In addition, the MIC against Staphylococcus aureus [7] stood at 1 µg/mL (≈ 1.66 µM); against Staphylococcus aureus [8], 2 µg/mL (≈ 3.32 µM); against Streptococcus pyogenes, 0.12 µg/mL (≈ 0.199 µM); against Streptococcus pneumoniae [9] it was 8 µg/mL (≈ 13.3 µM); with Streptococcus pneumoniae [10], 0.25 µg/mL (≈ 0.415 µM); against Staphylococcus aureus [11] it was 1 µg/mL (≈ 1.66 µM). In addition, the MIC in the assay on Staphylococcus aureus [12] is 0.5 µg/mL (≈ 0.829 µM); with Streptococcus pneumoniae [13] it was 4 µg/mL (≈ 6.63 µM).
Turning to `CC1(C)S[C@@H]2[C@H](NC(=O)Cc3ccccc3)C(=O)N2[C@H]1C(=O)O` [PENICILLIN G], the MIC against Streptococcus pneumoniae [1] is 0.5 µg/mL (≈ 1.5 µM); with Streptococcus pneumoniae [2] it was 8 µg/mL (≈ 23.9 µM); against Staphylococcus aureus [3] it was less than 0.5 µg/mL; against Staphylococcus aureus [4], 64 µg/mL (≈ 191 µM); in the assay on Streptococcus pneumoniae [5], 4 µg/mL (≈ 12 µM); against Streptococcus pneumoniae [6], less than 0.5 µg/mL. For the same compound, the MIC was less than 0.5 µg/mL against Staphylococcus aureus [7]; 64 µg/mL (≈ 191 µM) against Staphylococcus aureus [8]; 4 µg/mL (≈ 12 µM) in the assay with Streptococcus pneumoniae [9]; less than 0.5 µg/mL in the assay on Streptococcus pneumoniae [10]; 64 µg/mL (≈ 191 µM) with Staphylococcus aureus [11]; less than 0.5 µg/mL in the assay on Staphylococcus aureus [12]. Further, 8 µg/mL (≈ 23.9 µM) was the least that counted as inhibitory in the assay with Streptococcus pneumoniae [13] (MIC).

What is called MIC is the lowest concentration that inhibits growth of the organism. Low values mean inhibition by little substance, high ones a need for much substance.
